Results taken from ChEMBL document CHEMBL4364318, “Targeting multiple myeloma with natural polyphenols” (Eur J Med Chem, 2019).

Assays:
U-266 = assay: Induction of nitric oxide production in human U266 cells; format: functional, cell-based
RPMI-8226 = assay: Induction of apoptosis in human RPMI8226 cells at 10 to 20 uM by TUNEL assay relative to control; format: functional

Question: With `O=C(O[C@@H]1Cc2c(O)cc(O)cc2O[C@@H]1c1cc(O)c(O)c(O)c1)c1cc(O)c(O)c(O)c1` [EPIGALOCATECHIN GALLATE] as the compound, how does the IC50 (U-266) read?
Answer: 23.2 µM

Question: And the Activity (RPMI-8226)?
Answer: >100%
